The values that follow come from patent US20190365719A1, “COMBINATION TREATMENTS OF HSP90 INHIBITORS FOR ENHANCING TUMOR IMMUNOGENICITY AND METHODS OF USE THEREOF” (Massachusetts Institute of Technology, priority 2018, published 2019).

Assay [1] concerns MC38 tumors. Nature of the assay: Subcutaneous MC38 tumors in immunocompromised NOD-SCID mice. The class given is in vivo. Conditions: 0.5 mg/kg/day in drinking water.
Assay [2] relates to SUM159, SKMEL, H838 cells. Nature of the assay: Flow cytometry of MHC Class I on human tumor cell lines SUM159, SKMEL, H838. The class given is cell-based. Conditions: low dose, 72 hours. The protocol:
FIGS. 4A-4F are graphs showing low dose administration of HSP90i stimulates antigen presentation of tumor cells. […] FIG. 4C is a line graph showing relative MC38 cell number following exposure to increasing concentrations of Hsp90i; Live cell number was assessed with a standard metabolic dye-based (Alamar blue) assay and cell mass assessed by protein content using sulphorhodamine-B (SRB) assay. Representative histograms showing flow cytometric measurement of relative MHC Class I expression on the surface of triple-negative breast cancer (SUM159) (FIG. 4D), melanoma (SKMEL) (FIG. 4E), and lung adenocarcinoma (H838) (FIG. 4F) cells treated with DMSO (Veh) or low dose HSP990 for 72 hours.
MC38 cells were kindly provided by A. Sharpe from Dana Farber Cancer Institute. Cells were maintained in DMEM supplemented with 10% FBS and penicillin/streptomycin. SUM159, H838, SKMEL, and Colo cells were maintained in RPMI1640 supplemented with 10% FBS and penicillin/streptomycin. Cells were confirmed negative for mycoplasma contamination by PCR-based assay. […] Fluorescence as a measure of relative dye reduction was measured on an Envision plate reader (Perkin Elmer) with excitation at 544 nm and emission readings at 570 nm.
For analysis of MHC Class I surface expression, cells were seeded into 12 well plates (125,000/well). […] Cytometric data were plotted and analyzed with FloJo.

Assay [3] deals with KPM lung tumors. Briefly: Lung tumor burden in hypermutant KPM mouse model of NSCLC. Conditions: KPM mice, 0.5 mg/kg/day in drinking water for 4 weeks. In kind it is in vivo. An excerpt: A genetically engineered mouse model of non-small cell lung cancer (NSCLC) was used. Mice harboring a Cre-recombinase inducible oncogenic Kras, and a floxed p53 allele (KP) develop tumors following intratracheal administration of Cre recombinase. In addition, a hypermutant mouse model of NSCLC (KPM) was used in which mice have a floxed allele of the MutS homolog 2 (Msh2) gene, a critical component of DNA mismatch repair, in addition to the genetic modifications of the KP mouse model. These models enable the interrogation of Hsp90i strategies in a physiologically relevant NSCLC model with and without hypermutation.
KP and KPM mice were infected intratracheally with Adenovirus expressing Cre recombinase from an SPC promoter at a titer of 2×10^8 plaque forming units per mouse to initiate tumor formation. 8 weeks following tumor initiation, the cohort was randomized and vehicle (control) or Hsp90i (NVP-HSP990) was administered in the drinking water at a dose of 0.5 mg/kg/day for 4 weeks prior to analysis at 12 weeks post tumor induction.
Tumor burden was analyzed histologically on tumor sections stained with hemotoxylin and eosin (H&E) using standard protocols at the Koch Institute Histology Facility. Tumor burden was calculated by dividing the total area of tumor tissue over the total area of normal lung tissue present in each sample.

`COc1cccc(-c2cc(F)ccc2[C@H]2Cc3nc(N)nc(C)c3C(=O)N2)n1` [NVP-HSP990]: the “effect on tumor growth” value in assay [1] is listed as “no effect on tumor growth”. Also, the “MHC Class I expression on human tumor cell lines from breast, melanocytes and lung” value in assay [2] was “induced upregulation of MHC Class I expression”. Besides, the “lung tumor burden versus control” value in assay [3] is listed as “significantly reduced the lung tumor burden”.
